{"source": "patent US20230279020A9", "about": "“CARM1 INHIBITORS AND USES THEREOF” (Epizyme, Inc., priority 2013, published 2023)", "key": {"Human CARM1 (PRMT4)": {"biological_target": "Human CARM1 (PRMT4) (Homo sapiens (Human), UniProt Q86X55)", "sequence (Q86X55 other isoform, or with tags, fused parts or gaps isoform Q86X55-1)": "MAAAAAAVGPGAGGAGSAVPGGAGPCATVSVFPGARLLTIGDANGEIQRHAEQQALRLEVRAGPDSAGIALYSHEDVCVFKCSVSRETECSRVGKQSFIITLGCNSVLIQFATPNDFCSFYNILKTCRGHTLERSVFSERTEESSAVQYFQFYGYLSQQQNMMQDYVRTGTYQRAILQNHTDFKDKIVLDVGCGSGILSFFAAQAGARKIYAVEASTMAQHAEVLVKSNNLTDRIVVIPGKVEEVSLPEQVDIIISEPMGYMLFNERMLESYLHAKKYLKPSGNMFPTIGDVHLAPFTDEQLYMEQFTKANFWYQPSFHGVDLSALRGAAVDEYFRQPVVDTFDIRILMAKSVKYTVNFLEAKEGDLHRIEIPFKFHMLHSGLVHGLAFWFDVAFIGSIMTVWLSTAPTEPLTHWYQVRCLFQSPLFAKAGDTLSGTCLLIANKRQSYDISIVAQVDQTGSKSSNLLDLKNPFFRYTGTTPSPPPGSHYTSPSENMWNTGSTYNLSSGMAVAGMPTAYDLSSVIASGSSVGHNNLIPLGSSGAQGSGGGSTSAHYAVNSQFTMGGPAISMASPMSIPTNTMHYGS", "assay": "CARM1 enzyme assay on peptide substrate (3H-SAM Flashplate)", "conditions": "Biochemical potencies, classification codes; read-out: Biochem IC50"}, "[1]": {"tested_on": "asymmetric di-methyl PABP1 in RKO cells", "assay": "RKO methylation assay, In Cell Western (ICW) for asymmetric di-methyl PABP1", "format": "cell-based", "conditions": "Cellular potencies, PABP1me2a ICW", "text": "RKO adherent cells were purchased from ATCC (American Type Culture Collection), Manassas, Va., USA. DMEM/Glutamax medium, penicillin-streptomycin, heat inactivated fetal bovine serum, 0.05% trypsin and D-PBS were purchased from Life Technologies, Grand Island, N.Y., USA. Odyssey blocking buffer, 800CW goat anti-rabbit IgG (H+L) antibody, and Licor Odyssey infrared scanner were purchased from Licor Biosciences, Lincoln, Nebr., USA. Asymmetric di-methyl PABP1 antibody was purchased from Cell Signaling Technology, Danvers, Mass., USA. Methanol was purchased from VWR, Franklin, Mass., USA. 10% Tween 20 was purchased from KPL, Inc., Gaithersburg, Md., USA. Paraformaldehyde (PFA) was purchased from EM Sciences. DRAQ5 was purchased from Biostatus Limited, Leicestershire, UK.\nRKO adherent cells were maintained in growth medium (DMEM/Glutamax medium supplemented with 10% v/v heat inactivated fetal bovine serum and 100 units/mL penicillin-streptomycin) and cultured at 37° C. under 5% CO2.\nCell treatment, In Cell Western (ICW) for detection of asymmetric di-methyl PABP1 and DNA content: RKO cells were seeded in assay medium at a concentration of 30,000 cells per mL to a poly-D-lysine coated 384 well culture plate (BD Biosciences 356697) with 50 μL per well. Compound (100 nL) from a 96-well source plate was added directly to 384 well cell plate. Plates were incubated at 37° C., 5% CO2 for 48 hours. After two days of incubation, plates were brought to room temperature outside of the incubator for ten minutes and blotted on paper towels to remove cell media. Cells were fixed for 20 minutes at room temperature by adding 50 ul of 8% PFA followed by aspiration of supernatant with the Biotek EL406 plate washer. Cells were then permeabilized by addition of 50 μL of ice cold 100% methanol directly to each well and incubated for 30 min at room temperature. After 30 min, plates were transferred to a Biotek EL406 plate washer and washed 2 times with 100 μL per well of wash buffer (1×PBS). Next 60 μL per well of Odyssey blocking buffer (Odyssey Buffer with 0.1% Tween 20 (v/v)) were added to each plate and incubated 1 hour at room temperature. Blocking buffer was removed and 20 μL per well of primary antibody was added (asymmetric-methyl PABP1) diluted 1:400 in Odyssey buffer with 0.1% Tween 20 (v/v)) and plates were incubated overnight (16 hours) at 4° C. Plates were washed 5 times with 100 μL per well of wash buffer. Next 20 μL per well of secondary antibody was added (1:800 800CW goat anti-rabbit IgG (H+L) antibody, 1:2000 DRAQ5 in Odyssey buffer with 0.1% Tween 20 (v/v)) and incubated for 1 hour at room temperature. The plates were washed 5 times with 100 μL per well wash buffer then 2 times with 100 μL per well of water. Plates were allowed to dry at room temperature then imaged on the Licor Odyssey machine which measures integrated intensity at 700 nm and 800 nm wavelengths. Both 700 and 800 channels were scanned.\nFirst, the ratio for each well was determined by:\nEach plate included fourteen control wells of DMSO only treatment (minimum inhibition) as well as fourteen control wells for maximum inhibition treated with 20 μM of a reference compound. The average of the ratio values for each control type was calculated and used to determine the percent […] for each test well in the plate. Reference compound was serially diluted three-fold in DMSO for a total of nine test concentrations, beginning at 20 μM.\nPercent inhibition was determined and IC50 curves were generated using triplicate wells per concentration of compound."}, "U266B1": {"tested_on": "U266B1", "assay": "Human myeloma cell line 14-day proliferation assay (U266B1)", "format": "cell-based", "conditions": "U266B1 Human Multiple Myeloma cell line, varying doses, FIG. 1B", "experimental": "(§1) Human Multiple Myeloma cell lines NCI-H929 (FIG. 1A) and U266B1 (FIG. 1B) were treated with varying doses of 304-1a (medium grey data points), 23-3 (light grey data points), and 113-3 (black data points) in a 14-day proliferation assay. At the end of the experiment, total cell number was determined for each cell line for different doses of 304-1a, 23-3, and 113-3."}, "NCI-H929": {"tested_on": "NCI-H929", "assay": "Human myeloma cell line 14-day proliferation assay (NCI-H929)", "format": "cell-based", "conditions": "NCI-H929 Human Multiple Myeloma cell line, varying doses, FIG. 1A", "experimental": "as §1"}}, "note": "pIC50: −log10 of the molar value.", "data": [{"smiles": "CNCC(O)COc1cccc(-c2nc(NC3CCOC3=O)cc(-c3c(C)noc3C)n2)c1", "note": "(stereo not shown) [Example 23-1a]", "values": [{"measurement": "pIC50", "setting": "Human CARM1 (PRMT4)", "value": "> 7.00"}, {"measurement": "pIC50", "setting": "[1]; Homo sapiens, RKO", "value": "4.70 to 5.00"}]}, {"smiles": "CCOC(=O)N1CCOC[C@@H]1CNc1nc(-c2cc(OC[C@H](O)CNC)ccc2Cl)nc(-c2c(C)noc2C)c1C", "note": "[Example 23-3]", "values": [{"measurement": "cell proliferation (total cell number)", "setting": "U266B1", "value": "decreased the proliferation"}, {"measurement": "cell proliferation (total cell number)", "setting": "NCI-H929", "value": "decreased the proliferation"}, {"measurement": "pIC50", "setting": "Human CARM1 (PRMT4)", "value": "> 7.00"}]}, {"smiles": "CNCC(O)COc1cccc(-c2nc(NC3CCOC3=O)cc(-c3c(C)noc3C)n2)c1", "note": "(stereo not shown) [Example 24-1a]", "values": [{"measurement": "pIC50", "setting": "[1]", "value": "4.70 to 5.00"}]}, {"smiles": "CNCC(O)COc1cccc(-c2nc(-c3c(C)noc3C)cc(N3C[C@@H]4C[C@H]3CN4C(=O)OC)n2)c1", "note": "(stereo partly shown) [Example 105-1a]", "values": [{"measurement": "pIC50", "setting": "Human CARM1 (PRMT4)", "value": "> 7.00"}, {"measurement": "pIC50", "setting": "[1]", "value": "5.00 to 5.30"}]}, {"smiles": "CNC[C@@H](O)COc1ccc(Cl)c(-c2nc(-c3c(C)noc3C)c(C)c(N3Cc4cccnc4C3)n2)c1", "note": "[Example 113-3]", "values": [{"measurement": "cell proliferation (total cell number)", "setting": "U266B1", "value": "decreased the proliferation"}, {"measurement": "cell proliferation (total cell number)", "setting": "NCI-H929", "value": "decreased the proliferation"}, {"measurement": "pIC50", "setting": "Human CARM1 (PRMT4)", "value": "> 7.00"}]}, {"smiles": "CNCC(O)COc1cccc(-c2nc(-c3c(C)noc3C)c(C)c(N3CCO[C@H](CNC)C3)n2)c1", "note": "(stereo partly shown) [Example 129-1a]", "values": [{"measurement": "pIC50", "setting": "Human CARM1 (PRMT4)", "value": "> 7.00"}, {"measurement": "pIC50", "setting": "[1]", "value": "4.70 to 5.00"}]}, {"smiles": "CNC[C@@H](O)COc1ccc(Cl)c(-c2nc(NC3CCN(C(=O)OC)CC3)c(Cl)c(-c3c(C)noc3C)n2)c1", "note": "[Example 304-1a]", "values": [{"measurement": "cell proliferation (total cell number)", "setting": "U266B1", "value": "decreased the proliferation"}, {"measurement": "cell proliferation (total cell number)", "setting": "NCI-H929", "value": "decreased the proliferation"}, {"measurement": "pIC50", "setting": "Human CARM1 (PRMT4)", "value": "> 7.00"}]}, {"smiles": "CNCC(O)COc1cccc(-c2nc(N[C@@H]3CCOC3)c(C)c(N3CCC(n4c(C)nnc4C)CC3)n2)c1", "note": "(stereo partly shown) [Example 390-1a]", "values": [{"measurement": "pIC50", "setting": "[1]; Homo sapiens, RKO", "value": "5.00 to 5.30"}]}, {"smiles": "CNCC(O)COc1cccc(-c2nc(N[C@@H]3CCOC3)c(C)c(-c3ccc4nccn4c3)n2)c1", "note": "(stereo partly shown) [Example 445-1a]", "values": [{"measurement": "pIC50", "setting": "[1]; Homo sapiens, RKO", "value": "4.70 to 5.00"}]}, {"smiles": "CCS(=O)(=O)n1cc(-c2cc(N(C)C3CCOCC3)nc(-c3cccc(OCC(O)CNC)c3)n2)c2cncnc21", "note": "(stereo not shown) [Example 484-1a]", "values": [{"measurement": "pIC50", "setting": "[1]; Homo sapiens, RKO", "value": "> 5.30"}]}, {"smiles": "CNCC(O)COc1cccc(-c2nc(C3CCN(C(=O)N(C)C)[C@@H](C)C3)cc(N(C)C3CCOCC3)n2)c1", "note": "(stereo partly shown) [Example 509-1a]", "values": [{"measurement": "pIC50", "setting": "Human CARM1 (PRMT4)", "value": "6.00 to 7.00"}, {"measurement": "pIC50", "setting": "[1]; Homo sapiens, RKO", "value": "5.00 to 5.30"}]}, {"smiles": "CNC[C@@H](O)COc1cccc(-c2nc(N3CC4(CCNCC4)c4ccccc43)cc(N(C)C3CCOCC3)n2)c1", "note": "[Example 558-1a]", "values": [{"measurement": "pIC50", "setting": "Human CARM1 (PRMT4)", "value": "> 7.00"}, {"measurement": "pIC50", "setting": "[1]", "value": "4.70 to 5.00"}]}, {"smiles": "CNCC(O)COc1cccc(-c2nc(C(=O)NC3CCOCC3)c(C)c(C(=O)NC3CCOCC3)n2)c1", "note": "(stereo not shown) [Example 677-1a]", "values": [{"measurement": "pIC50", "setting": "Human CARM1 (PRMT4)", "value": "< 5.00"}]}, {"smiles": "CCN(CC)c1nc(-c2cccc(OCC(O)CNC)c2)nc(N2CCOCC2)c1C", "note": "(stereo not shown) [Example 682-1a]", "values": [{"measurement": "pIC50", "setting": "Human CARM1 (PRMT4)", "value": "> 7.00"}]}]}
